According to patent publication US20190314345A1, “CALCINEURIN INHIBITOR AND NON-STEROIDAL ANTI-INFLAMMATORY DRUG TO REDUCE RISK OF POST-IMAGING PANCREATITIS” (UNIVERSITY OF PITTSBURGH - OF THE COMMONWEALTH SYSTEM OF …, priority 2016, published 2019):

What was measured:
[1] = test system: NF-κB; assay: NF-κB-luciferase activity assay in AR42J cells; assay type: cell-based; conditions: for effect on RC-induced NF-κB luciferase levels: U73122 5 μM, 2-APB 100 μM, BAPTA 64 μM
Experimental: AR42J cells were differentiated towards an acinar phenotype by administering dexamethasone (100 nM) for 48-72 hr^17. AR42J cells were infected with Ad-NF-κB luciferase 16 h prior to stimulation using a previously described method^12. Following a wash with DMEM/F12 medium, acinar cells were evenly distributed in a 48-well plate and incubated for 30 min at 37° C. They were incubated with RC at varying concentrations and times. NF-κB-luciferase was measured using a commercially available luciferase assay (Promega, Madison, Wis.). Briefly, cells were spun at 1,000 rpm for 5 min, washed with PBS, and lysed using reporter lysis 5× buffer (Promega, catalog no. E397A). Samples were vortexed and spun at 12,000×g for 2 min. The supernatant was plated, and luminescence was measured using a Synergy H1 plate reader (BioTek, Winooski, Vt.) and normalized to […].

[2] = test system: PEP model in mice; assay: Intra-ductal RC infusion PEP model in mice: histological severity, serum amylase; assay type: in vivo, mouse
Text: The procedure for retrograde infusion into the CBD and pancreatic duct has been described before^14. Briefly, Swiss Webster mice were anesthetized with isoflurane. A midline incision was made to reveal the abdominal cavity. The duodenum was flipped to reveal its distal side and held in place by ligatures. […] needle was inserted through the anti-mesenteric aspect of the duodenum to cannulate the CBD. A small bull dog clamp was applied to the distal CBD (near the duodenum) to prevent back flow of the infusate into the duodenal lumen and to hold the cannula in place. A larger bull dog clamp was applied to the proximal CBD (near the liver) to prevent infusion into the liver and thus to direct flow to the pancreatic duct. Total volumes of 50-100 μl of iohexol, iopamidol, or normal saline (NS) were infused at 10-20 μl per min for 5 min using a P33 perfusion pump (Harvard Apparatus, Holliston, Mass.). Upon completion of the infusion, the bull dog clamps were released. The exterior abdominal wound was closed using 7 mm wound clips, and a single injection of buprenorphine (0.075 mg/kg) was given immediately after the surgery. Mice recovered on a heating pad for 30 min after the procedure. They were given free access to food and water after the surgery. The pancreas, duodenum, and spleen were fixed at room temperature for 24 hr in 4% paraformaldehyde. Paraffin-embedded sections were stained with hematoxylin an eosin (HE) and graded using a 20× objective over 10 separate fields in a blinded fashion. Pancreas tissue was graded for edema, inflammatory infiltrate, and necrosis as described by Wildi et al.^67. Whole blood samples were centrifuged at 1500×g for 5 min at 4° C. Serum amylase was measured using a Phadebas kit (Amersham Pharmacia, Rochester N.Y.) as previously described^68.

[3] = high-affinity Ca2+-sensing dye; cited from earlier work
[4] = test system: AR42J cells; assay: Ca2+ signals (Fluo-4AM) in AR42J cells; assay type: cell-based; conditions: U73122 5 μM, 2-APB 100 μM
Experimental: FIG. 7A-7H. […] (A) Summation of whole cell tracings from AR42J cells loaded with Fluo-4AM and perifused with RC (iohexol; 10-25%). (B, D) Quantification of amplitude and area under the curve. (C) RC (25%)-induced acinar cell Ca^2+ signals were prevented by the PLC inhibitor U73122 (5 μM) and the IP3R inhibitor 2-APB (100 μM). (n=20-30 cells per condition). *, # P<0.05 relative to 10% RC or RC alone, respectively. AR42J cells were infected with Ad-NFAT-luciferase and stimulated with RC at (E) increasing concentrations. […] (n=3). *, #, P<0.05, relative to the control or RC alone, respectively.
Acinar cells were loaded at room temperature with the high-affinity Ca^2+-sensing dye Fluo-4AM (Kd=300 nM; Invitrogen). Acinar cells were plated on acid-washed glass coverslips and then mounted on a perifusion chamber. Thereupon, they were stimulated at room temperature with varying concentrations of RC (17-50%) diluted in HEPES buffer. Carbachol (1 mM) was given at the end of each experiment to confirm that the cells were intact and could mobilize intracellular Ca^2+ stores. A Zeiss LSM710 laser scanning confocal microscope was used with a […], 1.4 numerical aperture objective. […] Fluorescence from individual acinar cells was recorded. Analysis of recordings was performed using ImageJ software (NIH, Bethesda, Md.), and mean fluorescence over time in each region was graphed.

[5] = test system: calcineurin; assay: NFAT-luciferase activity assay in AR42J cells; assay type: cell-based; conditions: for effect on RC (6%)-induced NFAT-luciferase activity: pretreatment, FK506 24 μM, CsA 16 μM, U73122 5 μM, 2-APB 100 μM, BAPTA 64 μM
Experimental: (§1) Acinar cells were infected with Ad-NFAT-luciferase following a previously described procedure^10, 15, 16. The construct includes a luciferase gene placed downstream of an IL-4 promoter which contains nine tandem NFAT binding sites^10. Acinar cells were incubated with the NFAT-driven luciferase adenovirus for 1.5 hr prior to stimulation. All of the stated inhibitors were added for 30 min prior to stimulation with RC. NFAT-luciferase was measured using the luciferase assay system. Briefly, cells were spun at 1,000 rpm for 5 min, washed with PBS, and lysed using reporter lysis 5× buffer (Promega #E397A, Madison, Wis.). Samples were vortexed and spun at 12,000 g for 2 min. Supernatant was plated, and luminescence was measured using a Synergy H1 plate reader (BioTek, Winooski, Vt.) and normalized to total protein.

[6] = test system: primary acinar cells; assay: Cell necrosis assay (propidium iodide uptake) in primary acinar cells; assay type: cell-based, mouse; conditions: for effect on RC (12%)-induced acinar cell injury (PI uptake): 6 hr incubation, U73122 5 μM, 2-APB 100 μM, BAPTA 64 μM, IKK-2 20 μM, FK506 24 μM, CsA 16 μM
Experimental: Acinar cells were incubated in a 48-well plate with 50 μg/ml of propidium iodide (PI) for 30 min prior to addition of RC. Fluorescence was measured at 536 nm excitation and 617 nm emission wavelengths over time a time course of up to 6 hr. Fluorescence was measured after cell lysis with 0.5% Triton-X 100 was used to normalize the results relative to total DNA.

[7] = test system: calcineurin; assay: NFAT-luciferase activity assay in mouse primary acinar cells; assay type: cell-based
Experimental: as §1

[8] = test system: mouse pancreatic acinar cells; assay: Ca2+ signals (Fluo-4AM) in mouse pancreatic acinar cells; assay type: cell-based; conditions: 25% and 33% RC; peak-plateau Ca2+ waves
Experimental: Acinar cells were loaded at room temperature with the high-affinity Ca^2+-sensing dye Fluo-4AM (Kd=300 nM; Invitrogen). Acinar cells were plated on acid-washed glass coverslips and then mounted on a perifusion chamber. Thereupon, they were stimulated at room temperature with varying concentrations of RC (17-50%) diluted in HEPES buffer. Carbachol (1 mM) was given at the end of each experiment to confirm that the cells were intact and could mobilize intracellular Ca^2+ stores. A Zeiss LSM710 laser scanning confocal microscope was used with a […], 1.4 numerical aperture objective. The dye was excited at 488 nm wavelength, and emission signals of >515 nm were collected every 2 sec. Fluorescence from individual acinar cells was recorded. Analysis of recordings was performed using ImageJ software (NIH, Bethesda, Md.), and mean fluorescence over time in each region was graphed.
Groups of pancreatic acinar cells were isolated as previously described 26, 69 with minor modifications. Briefly, the pancreas was removed, and then minced for 5 min in buffer containing 20 mM HEPES (pH 7.4), 95 mM NaCl, 4.7 mM KCl, 0.6 mM MgCl2, 1.3 mM CaCl2=, 10 mM glucose, and 2 mM glutamine, plus 1% BSA, 1×MEM nonessential amino acids (GIBCO/BRL), 200 units/ml type-4 collagenase (Worthington, Freehold, N.J.), and 1 mg/ml soybean trypsin inhibitor. The tissue was incubated for 30 min at 37° C. with shaking at 90 rpm. […]

[9] = test system: pancreatic acinar cells; assay: ATP level measurements in acinar cells; assay type: cell-based, mouse; conditions: RC, concentration dependent
Experimental: Following isolation, pancreatic acinar cells were cultured in DMEM/F12 Medium (0.5 ml/well of a 48-well plate) at 37° C. water bath and treated with RC±FK506. Cells were collected at indicated time points and lysed in 100 lysis buffer (100 mM Tris pH 7.75, 4 mM EDTA). ATP levels were measured from 20 μl aliquots of acinar cell lysates using the ENLITEN luciferase/luciferin reagent (Promega catalog no. FF2021).

[10] = test system: pancreatic NF-κB; assay: Imaging pancreatic NF-κB bioluminescence in vivo; design: species or system mouse; conditions: 4 hr after surgery, region of the pancreas
Experimental: An AAV6-NF-κB-luciferase reporter was constructed, expanded in HEK293 cells, and purified as previously described^18-20, 39. A volume of 100 μl of virus (10^12 GCP/ml) was infused into the pancreaticobiliary duct at a rate of 10 μl/min using the same technique of RC infusion described above and recently published^21, 39. After a 5-week recovery from the surgery, mice underwent PEP induction with or without FK506 treatment. At varying time points after the surgery, ranging from 2 to 36 hr, bioluminescence signals were obtained by first giving a subcutaneous injection of luciferin (150 μg/g body weight) in the scruff of the neck 15 min before the start of imaging. The mice were briefly anesthetized with isoflurane and placed in the supine position in a bioluminescent imaging chamber (IVIS spectrum imager; Perkin Elmer, Waltham, Mass.) for 3-10 min. Average pixel intensity was measured from a pancreatic region of interest (in the upper abdomen). Raw time points from each mouse were normalized to its individual baseline intensity at time zero.

[11] = test system: calcineurin; assay: NFAT-luciferase activity assay in human acinar cells; assay type: cell-based
Experimental: as §1

[12] = varying concentrations of iopamidol

Structure (SMILES): OC[C@@H](O)[C@@H](O)[C@H](O)[C@H](O)CO [mannitol]
- NF-κB increase at equimolar concentrations ([1]; osmolality control, equimolar to RC): failed to cause an increase

Structure (SMILES): COc1ccc2c(c1)c(CC(=O)O)c(C)n2C(=O)c1ccc(Cl)cc1 [indomethacin]
- effect of FK506 compared with therapeutic indomethacin on RC-induced pancreatitis ([2]; FK506 1 mg/kg, indomethacin 7 mg/kg IP after RC infusion): as robust

Structure (SMILES): CCCCCCCCCCC[C@@H](C[C@@H]1OC(=O)[C@H]1CCCCCC)OC(=O)[C@H](CC(C)C)NC=O [Orlistat]
- effect of pretreatment on RC-induced NF-κB activation ([1]; NAC 2-12 mM, Orlistat 50-100 μM, RC 16%): did not significantly reduce

Structure (SMILES): CC(=O)OCOC(=O)CN(CC(=O)OCOC(C)=O)c1ccc(C)cc1OCCOc1cc(-c2c3cc(F)c(=O)cc-3oc3cc(OCOC(C)=O)c(F)cc23)ccc1N(CC(=O)OCOC(C)=O)CC(=O)OCOC(C)=O [Fluo-4AM]
- Kd [3]: 300 nM

Structure (SMILES): COc1ccc2c(c1)CC[C@@H]1[C@@H]2CC[C@]2(C)[C@@H](NCCCCCCN3C(=O)C=CC3=O)CC[C@@H]12 [U73122]
- effect on RC (25%)-induced acinar cell Ca2+ signals [4]: prevented
- effect on RC (6%)-induced NFAT-luciferase activity [5]: prevented
- effect on RC-induced NF-κB luciferase levels [1]: reduced
- effect on RC (12%)-induced acinar cell injury (PI uptake) [6]: prevented

Structure (SMILES): NCCOB(c1ccccc1)c1ccccc1 [2-APB]
- effect on RC (25%)-induced acinar cell Ca2+ signals [4]: prevented
- reduction of RC-induced luciferase rise ([7]; 2-APB 100 μM, P<0.05): 47%
- effect on RC (6%)-induced NFAT-luciferase activity [5]: prevented
- effect on RC-induced NF-κB luciferase levels [1]: reduced
- effect on RC (12%)-induced acinar cell injury (PI uptake) [6]: prevented

Structure (SMILES): C[C@H](O)C(=O)Nc1c(I)c(C(=O)NC(CO)CO)c(I)c(C(=O)NC(CO)CO)c1I [iopamidol]
- induction of pancreatitis ([2]; intra-ductal infusion, 24 hr): induces pancreatitis
- NFAT activation [5, 12]: concentration-dependent
- NF-κB activation [1, 12]: concentration-dependent

Structure (SMILES): CC(=O)N(CC(O)CO)c1c(I)c(C(=O)NCC(O)CO)c(I)c(C(=O)NCC(O)CO)c1I (stereo not drawn) [RC, iohexol]
- severity of pancreatitis at pH 6 compared to pH 7 ([2]; RC buffered with 10 mM HEPES, pH clamped at 6): no increased severity
- increase in histological severity above the intra-ductal NS sham control ([2]; intra-ductal RC, doubled rate and volume, 24 hr after procedure): 59%
- serum amylase increase ([2]; intra-ductal RC, 6 hr post-procedure): at least 50%
- Ca2+ signal amplitude above baseline [8]: 400%
- increase in NF-κB luciferase above baseline ([1]; 25% RC for 10 min, followed by washout): 5 fold
- increase in NF-κB luciferase above baseline ([1]; 25% RC for 60 min, P<0.05): 58 fold
- increase in NF-κB luciferase above baseline ([1]; 25% RC for 90 min, P<0.05): 59 fold
- increase in NF-κB luciferase above baseline ([1]; 25% RC for 120 min, P<0.05): 112 fold
- rise in NF-κB ([1]; at 350 mOsm/L): 300 fold
- PI uptake ([6]; RC exposure for 6 hr): concentration-dependent increase
- ATP levels [9]: depletion
- peak in NF-κB luciferase compared to NS sham [10]: 13 fold

Structure (SMILES): CC(=O)OCOC(=O)CN(CC(=O)OCOC(C)=O)c1ccccc1OCCOc1ccccc1N(CC(=O)OCOC(C)=O)CC(=O)OCOC(C)=O [BAPTA-AM]
- effect on RC-induced rise in NFAT-luciferase ([7]; 30 min pre-treatment, FK506 24 μM, CsA 16 μM, BAPTA-AM 64 μM): completely reduced
- effect on RC (25%)-induced NFAT-luciferase activity [11]: prevented
- effect on RC (6%)-induced NFAT-luciferase activity [5]: prevented
- effect on RC-induced NF-κB luciferase levels [1]: reduced
- effect on RC (12%)-induced acinar cell injury (PI uptake) [6]: prevented
